pIC50: −log10 of the molar value.
Key:
various tumor cell lines = assay: Inhibitory activity against tumor cells, summary over the panel of Tables 4 and 5; format: cell-based; details: summary of Tables 4 and 5
Experimental: (§1) MCF7 (ATCC #HTB-22) and T47D (ATCC #HTB-133) breast cancer cells and PANC-1 (ATCC #CRL-1469) pancreatic cancer cells were purchased from ATCC. MDA-MB-231 (Cobioer #CBP60382), HCC1806 (Cobioer #CBP60373), and MDA-MB-468 (Cobioer #CBP60387) breast cancer cells, HCT-116 (Cobioer #CBP60028) colorectal cancer cells, and OCI-AML-3 (Cobioer #CBP60817) and MV-4-11 (Cobioer #CBP60522) leukemia cells were purchased from Nanjing Cobioer Biosciences Co., Ltd.
(§2) OCI-AML-3 was cultured in RPMI 1640 medium with 20% FBS; HCC1806 and T47D were cultured in RPMI 1640 medium with 10% FBS; MCF7, MDA-MB-231, MDA-MB-468, and PANC-1 were cultured in DMEM medium with 10% FBS; MV-4-11 was cultured in IMDM medium with 20% FBS; HCT-116 was cultured in MC′5A medium with 10% FBS.
(§3) Palbociclib-resistant cells were constructed on MCF7 parent cells, designated MCF7 Palbo-R, and the culture conditions were consistent with those of the parent cells. All tumor cells were cultured in a cell incubator at 37° C. with 5% CO2. The cells were seeded at corresponding cell densities (600 cells/well for MDA-MB-231; 500 cells/well for MDA-MB-468, PANC-1, and HCT-116; 200 cells/well for MCF7 and HCC1806; 800 cells/well for MCF7 Palbo-R; 3000 cells/well for OCI-AML-3 and MV-4-11) in 384-well plates and cultured overnight in the incubator. On the second day, the cells were treated with compounds. The maximum compound concentration was 10 μM and was 3-fold diluted to obtain 9 concentrations, each tested in duplicate, and the final concentration of DMSO was 0.1%. The cells continued to be cultured in the incubator, with MDA-MB-231, PANC-1, MDA-MB-468, OCI-AML-3, and MV-4-11 being treated with drugs for 5 days and HCC1806, MCF7, MCF7 Palbo-R, and HCT116 being treated with drugs for 7 days. Cell viability was tested using the Celltiter Glo assay kit (Promega), and the testing method was consistent with the operational method provided by the kit. Readings were taken using an Envision multimode microplate reader. Data were processed using GraphPad Prism 8, and IC50 was calculated.
Y=Bottom+(Top−Bottom)/(1+10^((Log IC50−X)×HillSlope)). Calculation formula: • X: the logarithm of the compound concentration; Y: % inhibition.

OCI-AML-3 leukemia cells = assay: Inhibitory activity against tumor cells, CellTiter-Glo: OCI-AML-3; format: cell-based; details: Homo sapiens, 120 h, OCI-AML-3, 5 days treatment
Experimental: as §1, §2
as §3, with “calculated. […]” for “calculated.”

[1] = Human liver microsome metabolism study; format: in vitro ADME
Experimental: 222.5 μL of human liver microsomes (protein concentration: 1 mg/mL) and 25 μL of NADPH ([…]) were added to an incubation plate and pre-heated for 10 min. 2.5 μL of control compound and test compound (100 μM) were added.
[…] The reaction was stopped by adding 5 volumes of cold acetonitrile containing IS (100 nM alprazolam, 200 nM caffeine, and 100 nM tolbutamide). The reaction mixture was centrifuged, and 100 μL of the supernatant was collected and mixed with 100 μL of ultrapure H2O. Then the mixture was analyzed by LC-MS/MS.
The slope value k was determined by linear regression of the natural logarithm of a curve of the parent drug remaining percentage versus incubation time.
The in-vitro half-life (in-vitro T1/2) was determined by the slope value:
Using the following equation (the average of repeated measurements), the in-vitro T½ (min) was converted to the in-vitro intrinsic clearance rate (in-vitro CLint, in μL/min/mg protein): […]

Row | SMILES | inhibitory activity against the various tumor cell lines (in words) (various tumor cell lines) | pIC50 (OCI-AML-3 leukemia cells) | half-life at 1 μM ([1]; human liver microsomes, in-vitro half-life) [h] | microsomal CLint at 1 μM ([1]; human liver microsomes, in-vitro intrinsic clearance) [µL/min/mg] | Remaining amount % at 0.5 min ([1]; human liver microsomes, incubation 0.5 min) [%] | Remaining amount % at 5 min ([1]; human liver microsomes, incubation 5 min) [%] | Remaining amount % at 15 min ([1]; human liver microsomes, incubation 15 min) [%] | Remaining amount % at 30 min ([1]; human liver microsomes, incubation 30 min) [%] | Remaining amount % at 60 min ([1]; human liver microsomes, incubation 60 min) [%] | metabolic stability in human liver microsomes compared with Janssen-01 ([1]; summary of Tables 7 and 8, statement in words)
1 | C[C@H](Nc1ncc2c(n1)CN(C(=O)N[C@H](CN(C)C)c1ccccc1)[C@H](C)C2)c1ccccn1 [Example 6, (R)—N—((S)-2-(Dimethylamino)-1-phenylethyl)-6-methyl-2-(((S)-1-(pyridin-2-yl)ethyl)amino)-5,8-dihydropyrido[3,4-d]pyrimidine-7(6H)-carboxamide] | high inhibitory activity | 7.48 | – | – | – | – | – | – | – | –
2 | C[C@@H]1Cc2cnc(NCc3ccn(C)n3)nc2CN1C(=O)N[C@H](CN(C)C)c1ccccc1 [Example 2, (R)—N—((S)-2-(Dimethylamino)-1-phenylethyl)-6-methyl-2-(((1-methyl-TH-pyrazol-3-yl)methyl)amino)-5,8-dihydropyrido[3,4-d]pyrimidine-7(6H)-carboxamide] | high inhibitory activity | 7.48 | > 3.08 | < 7.5 | 100.00 | 105.55 | 96.07 | 100.48 | 81.83 | more stable metabolism

Reference: patent US20260176266A1, “PIPERIDINOPYRIMIDINE DERIVATIVE, PREPARATION METHOD THEREFOR AND USE THEREOF IN MEDICINE” (TUOJIE BIOTECH (SHANGHAI) CO., LTD., priority 2022, published 2026)
